Consider twelve compounds from ChEMBL document CHEMBL1773026, “Inhalation by design: dual pharmacology β-2 agonists/M3 antagonists for the treatment of COPD” (Bioorg Med Chem Lett, 2011).

Each structure is given as a SMILES string. Some results are limits rather than exact numbers.

For orientation: microsomal CLint means the capacity of the preparation to metabolise the compound, expressed as a volume cleared per time. A low value points to slow turnover. One may read the Ki as a measure of affinity in units of concentration, obtained from inhibition or displacement. One may read the bioavailability as dose-corrected exposure relative to a reference, in per cent. Lower therefore signals poor availability. A word on the EC50: it is the concentration needed to bring the measured effect to its halfway point. One may read the clearance as the rate of elimination divided by the concentration. As a reminder, the AUC is the area under the concentration-time curve, a measure of exposure. Higher therefore signals high exposure.

Data set [1] is described as follows: Clearance in human liver microsomes. Format: ADME, Microsome. (In general: Liver microsomes are a subcellular fraction often used to study metabolism.)
The target in data set [2] is T1, Muscarinic acetylcholine receptor M3 (Homo sapiens, UniProt P20309). As to the kind of experiment: Displacement of [3H]N-methyl Scopolamine from human muscarinic M3 receptor expressed in CHO cells by scintillation proximity assay. Format: cell-based. (In general: Displacement assays read how much labelled ligand stays bound in the presence of the test substance.)
Target sequence in this assay (P20309 whole entry): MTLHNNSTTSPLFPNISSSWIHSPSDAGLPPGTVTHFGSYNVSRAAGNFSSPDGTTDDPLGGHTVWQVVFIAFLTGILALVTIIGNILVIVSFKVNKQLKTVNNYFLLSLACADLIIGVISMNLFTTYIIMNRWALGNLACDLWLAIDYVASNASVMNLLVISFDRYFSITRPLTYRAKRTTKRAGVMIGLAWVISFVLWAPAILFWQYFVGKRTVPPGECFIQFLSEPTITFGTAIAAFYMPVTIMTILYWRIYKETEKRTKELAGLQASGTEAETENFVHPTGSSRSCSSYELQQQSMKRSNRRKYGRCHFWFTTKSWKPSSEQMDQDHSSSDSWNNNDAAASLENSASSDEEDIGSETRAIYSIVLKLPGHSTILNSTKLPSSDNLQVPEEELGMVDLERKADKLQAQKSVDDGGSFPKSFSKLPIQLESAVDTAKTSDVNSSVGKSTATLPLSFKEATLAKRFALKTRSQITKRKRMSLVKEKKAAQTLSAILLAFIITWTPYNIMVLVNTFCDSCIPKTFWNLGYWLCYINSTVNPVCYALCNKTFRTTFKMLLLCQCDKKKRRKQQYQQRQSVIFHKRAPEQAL

A short description of data set [3]: Oral bioavailability in human. In kind it is ADME, organism-based. Conditions: in vivo.
In data set [4] the target is T2, Beta-2 adrenergic receptor (Homo sapiens, UniProt P07550). The data set is described as follows: Agonist activity at human beta2 adrenergic receptor expressed in CHO cells assessed as stimulation of intracellular cAMP production after 30 mins of washing by wash-off assay. In kind it is functional, cell-based. A general note: cAMP levels reflect the balance of adenylyl cyclase and phosphodiesterase activity.
Target sequence in this assay (P07550 whole entry): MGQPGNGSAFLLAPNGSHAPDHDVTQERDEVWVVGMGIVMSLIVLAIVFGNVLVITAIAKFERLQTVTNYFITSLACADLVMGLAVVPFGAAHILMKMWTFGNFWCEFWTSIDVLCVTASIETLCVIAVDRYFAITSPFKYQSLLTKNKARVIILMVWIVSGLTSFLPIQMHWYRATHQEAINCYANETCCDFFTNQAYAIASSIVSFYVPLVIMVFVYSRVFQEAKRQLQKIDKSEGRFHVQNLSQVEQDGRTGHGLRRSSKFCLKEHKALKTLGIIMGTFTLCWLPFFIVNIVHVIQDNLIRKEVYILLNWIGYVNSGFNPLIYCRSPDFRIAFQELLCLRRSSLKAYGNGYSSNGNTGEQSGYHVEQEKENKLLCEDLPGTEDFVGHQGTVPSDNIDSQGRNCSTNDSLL

Data set [5] in a line: Bronchodilatory activity against electrically-stimulated contraction in guinea pig trachea assessed as concentration required for 50% bronchorelaxation activity. In kind it is functional, tissue-based, Cavia porcellus.
Data set [6] can be described thus: Clearance in rat at 2 mg/kg, iv. To be noted: in vivo. Format: ADME, organism-based. The arrangement: dose 2 mg/kg, route intravenous.
Data set [7] can be described thus: Bronchodilatory activity against electrically-stimulated contraction in guinea pig trachea assessed as time taken for inducing 50% maximum relaxant effect. In kind it is functional, Cavia porcellus.
Data set [8] addresses T1, Muscarinic acetylcholine receptor M3. As to the kind of experiment: Displacement of [3H]NMS from human muscarinic M3 receptor expressed in CHO cells assessed as time required to reach 50% of total [3H]NMS binding by dilution-offset methodology. Format: cell-based.
Target sequence in this assay (P20309 whole entry, looked up): as the sequence (P20309 whole entry) above
For data set [9], the species on record is Canis familiaris. As to the kind of experiment: Inhibition of methacholine-induced bronchoconstriction in dog. Format: functional, Canis lupus familiaris.
Data set [10] deals with Muscarinic acetylcholine receptor M3 (Cavia porcellus, UniProt Q8VH26). The data set is described as follows: […] activity at muscarinic M3 receptor in guinea pig trachea assessed as bronchorelaxation activity in presence of propranolol. Format: functional, tissue-based.
Data set [11] deals with Muscarinic acetylcholine receptor M3 (Cavia porcellus) (UniProt Q8VH26). As to the kind of experiment: […] activity at muscarinic M3 receptor in guinea pig trachea assessed as time taken for inducing bronchorelaxation activity in presence of propranolol. Format: functional, tissue-based.
Data set [12] deals with Beta-2 adrenergic receptor (Cavia porcellus, UniProt Q8K4Z4). As to the kind of experiment: Agonist activity at adrenergic beta2 receptor in guinea pig trachea assessed as bronchorelaxation activity against histamine-induced contraction. Format: functional.
For data set [13], the species on record is Canis familiaris. As to the kind of experiment: Inhibition of methacholine-induced bronchoconstriction in dog assessed as duration action at 30 ug, it. In kind it is functional, Canis lupus familiaris.
Data set [14] is described as follows: AUC in rat at 2 mg/kg, iv. Format: ADME, organism-based. The arrangement: dose 2 mg/kg, route intravenous. Conditions: plasma.
Data set [15] has as its target T2, Beta-2 adrenergic receptor. As to the kind of experiment: Ratio of EC50 for human beta2 adrenergic receptor by unwashed assay to EC50 for human beta2 adrenergic receptor expressed in CHO cells by wash-off assay. In kind it is cell-based.
Target sequence in this assay (P07550 whole entry, looked up): as the sequence (P07550 whole entry) above

Sequence of Beta-2 adrenergic receptor (Cavia porcellus, UniProt Q8K4Z4) (Q8K4Z4 whole entry): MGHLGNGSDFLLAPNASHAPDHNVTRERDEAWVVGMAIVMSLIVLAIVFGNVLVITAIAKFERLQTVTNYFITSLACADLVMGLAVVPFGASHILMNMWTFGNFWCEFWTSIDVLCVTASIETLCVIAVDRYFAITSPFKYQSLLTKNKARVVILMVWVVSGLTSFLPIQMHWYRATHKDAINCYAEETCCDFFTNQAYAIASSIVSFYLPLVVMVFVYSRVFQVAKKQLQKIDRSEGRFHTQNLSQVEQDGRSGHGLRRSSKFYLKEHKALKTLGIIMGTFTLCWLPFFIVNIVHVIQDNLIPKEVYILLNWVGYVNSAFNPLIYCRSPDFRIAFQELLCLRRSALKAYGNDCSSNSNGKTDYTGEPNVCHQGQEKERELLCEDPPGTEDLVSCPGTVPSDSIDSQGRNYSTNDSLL
Sequence of Muscarinic acetylcholine receptor M3 (Cavia porcellus) (Q8VH26 1-587): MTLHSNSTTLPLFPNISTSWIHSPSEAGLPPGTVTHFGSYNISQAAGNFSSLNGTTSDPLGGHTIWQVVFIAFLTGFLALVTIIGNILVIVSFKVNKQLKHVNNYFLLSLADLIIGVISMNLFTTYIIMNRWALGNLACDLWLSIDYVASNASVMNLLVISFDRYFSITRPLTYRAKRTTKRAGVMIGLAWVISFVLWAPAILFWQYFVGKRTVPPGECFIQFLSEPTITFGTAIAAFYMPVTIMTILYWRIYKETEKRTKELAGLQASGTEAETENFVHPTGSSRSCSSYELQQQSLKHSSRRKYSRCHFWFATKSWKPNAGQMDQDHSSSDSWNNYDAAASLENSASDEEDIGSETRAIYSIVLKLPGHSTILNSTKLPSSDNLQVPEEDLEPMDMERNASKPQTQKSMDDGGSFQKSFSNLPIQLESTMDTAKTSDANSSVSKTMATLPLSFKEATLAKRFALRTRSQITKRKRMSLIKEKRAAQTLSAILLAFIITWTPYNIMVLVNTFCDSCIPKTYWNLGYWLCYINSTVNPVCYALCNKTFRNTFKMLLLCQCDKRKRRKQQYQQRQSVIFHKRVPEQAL
Sequence of Muscarinic acetylcholine receptor M3 (Cavia porcellus, UniProt Q8VH26) (Q8VH26 whole entry): as the sequence (Q8VH26 1-587) above

As to `CC(C)N(CC[C@H](c1ccccc1)c1cc(CCCCOc2ccc(CCNC[C@H](O)c3ccc(O)c4[nH]c(=O)ccc34)cc2)ccc1O)C(C)C`, the microsomal CLint in data set [1] stood at 74 µL/min/mg. In addition, the Ki in data set [2] was 0.305 nM. This compound also came in with a bioavailability in [3] below 5%. Also, the EC50 in data set [4] turned out to be 2.4 nM; in [5], 4.1 nM; in data set [10], 4 nM; in [12] it was 4 nM. Further, the clearance in data set [6] was 12.6 mL/min/kg. The Time is above 7.7 h in data set [7] and above 16 h in the data set filed under Canis familiaris [13]. The values for the TIME in data set [8] and in data set [11] were above 20 h and above 10 h, respectively. The compound also returned an ED50 in the data set listed under Canis familiaris [9] of 30 µg. In data set [14], the AUC stood at 2670 ng·h/mL. For the same compound, in [15], the Ratio EC50 amounted to 1.1.

With `CC(C)N(CC[C@H](c1ccccc1)c1cc(CCCNC(=O)Cc2cccc(C[C@@H](C)NC[C@H](O)c3cc(O)cc(O)c3)c2)ccc1O)C(C)C`, the microsomal CLint in data set [1] is above 440 µL/min/mg. The same compound gave a Ki in data set [2] of 0.397 nM. For the same compound, in [4], the EC50 turned out to be 15 nM. Further, the TIME in data set [8] was 2.25 h. In addition, the Ratio EC50 in data set [15] was determined as 0.7.

On to `CC(C)N(CC[C@H](c1ccccc1)c1cc(CCCCOc2ccc(CCNC[C@H](O)c3ccc(O)c(O)c3)cc2)ccc1O)C(C)C`, for which, in data set [2], the Ki was 4.7 nM. Moreover, the EC50 in [4] is 173 nM.

`Cc1ccc(O)c([C@H](CCN(C(C)C)C(C)C)c2ccccc2)c1` [TOLTERODINE]: the microsomal CLint in data set [1] was 163 µL/min/mg. In addition, in data set [8], the TIME is below 0.25 h.

Regarding `CC(C)N(CC[C@H](c1ccccc1)c1cc(CCCNC(=O)Cc2cccc(CC(C)(C)NC[C@H](O)c3ccc(O)c(CO)c3)c2)ccc1O)C(C)C`, in [1], the microsomal CLint was 263 µL/min/mg. The affinity in data set [2] corresponds to a Ki of 0.091 nM. In addition, in data set [4], the EC50 was 17 nM. Further, in [8], the TIME was 5.92 h. The Ratio EC50 in data set [15] worked out at 2.8.

Compound `CC(C)N(CC[C@H](c1ccccc1)c1cc(CCCCOc2ccc(CCNC[C@H](O)c3ccc(O)c(CO)c3)cc2)ccc1O)C(C)C` yielded a microsomal CLint in [1] of 54 µL/min/mg. For the same compound, the affinity in data set [2], expressed as Ki, was 0.765 nM. In addition, the EC50 in data set [4] was found to be 129 nM. In data set [8], the TIME is above 20 h. The Ratio EC50 in [15] is 2.6.

In turn, `C[C@H](Cc1cccc(CC(=O)NCc2ccc(Cl)c(Cl)c2)c1)NC[C@H](O)c1ccc(O)c(CO)c1` came in with a microsomal CLint in data set [1] above 440 µL/min/mg. Besides, the EC50 in data set [4] was determined as 1.1 nM. The Ratio EC50 in data set [15] was 2.9.

With `CC(C)N(CC[C@H](c1ccccc1)c1cc(CCCCOc2ccc(CCNC[C@H](O)c3ccc(O)c(NS(C)(=O)=O)c3)cc2)ccc1O)C(C)C`, in data set [1], the microsomal CLint was found to be 67 µL/min/mg. This compound also registered a Ki in data set [2] of 0.634 nM. The EC50 in data set [4] was determined as 13 nM. The TIME in data set [8] was above 20 h. The Ratio EC50 in [15] was 1.9.

`CC(C)N(CC[C@H](c1ccccc1)c1cc(CCCNC(=O)Cc2cccc(CC(C)(C)NC[C@H](O)c3ccc(O)c(NS(C)(=O)=O)c3)c2)ccc1O)C(C)C` registered a microsomal CLint in data set [1] of 109 µL/min/mg. The affinity in [2] corresponds to a Ki of 0.276 nM. The EC50 came to 8.1 nM in data set [4], 1.3 nM in data set [5], 5.3 nM in [10] and 2.1 nM in [12]. The Time in [7] is above 6.5 h. For the same compound, the TIME is 2.77 h in [8] and 4.8 h in data set [11]. Moreover, the Ratio EC50 in data set [15] is 1.1.

`CC(C)N(CC[C@H](c1ccccc1)c1cc(CCNC[C@H](O)c2ccc(O)c(NS(C)(=O)=O)c2)ccc1O)C(C)C` showed a Ki in data set [2] of 6.1 nM. Further, in data set [4], the EC50 was determined as 10 nM. The TIME in [8] is below 0.25 h. Further, the Ratio EC50 in data set [15] amounted to 19.

In the case of `CC(C)N(CC[C@H](c1ccccc1)c1cc(CCCNC(=O)CCCCCCCCCCNC[C@H](O)c2ccc(O)c(NS(C)(=O)=O)c2)ccc1O)C(C)C`, the microsomal CLint in data set [1] worked out at 87 µL/min/mg. Moreover, in data set [2], the affinity, expressed as Ki, was 1.45 nM. The EC50 in data set [4] was 116 nM. Moreover, in [15], the Ratio EC50 came to 7.3.

As to `CC(C)N(CC[C@H](c1ccccc1)c1cc(CCCCOCCCCCCNC[C@H](O)c2ccc(O)c(NS(C)(=O)=O)c2)ccc1O)C(C)C`, in [1], the microsomal CLint stood at 57 µL/min/mg. Further, the affinity in data set [2], expressed as Ki, was 0.99 nM. Further, the EC50 in [4] worked out at 5.7 nM. Besides, the TIME in [8] was above 20 h. In data set [15], the Ratio EC50 turned out to be 0.7.
